Assay [1] concerns the target T1, PxylCSP18 (Plutella xylostella, UniProt A0ABQ7Q8H2, Q80P). Nature of the assay: Titration of PxylCSP18 with fluorescent probe 1-NPN (Scatchard plot). The format is binding. As to conditions: 1 µM protein in 20 mM Tris–HCl pH 7.4, 1-NPN 1 to 17 µM, Scatchard plots; read-out: dissociation constant (K1-NPN). On the procedure:
The fluorescence competitive binding assays were performed as described previously ([Fu et al. 2020], [Hua et al. 2021]) with some modifications. Briefly, the emission spectra of the fluorescent probe, N-phenyl-1-naphthylamine (1-NPN, Sigma-Aldrich, USA), were recorded from 350 to 600 nm with 5 nm width of the emission slits and the excitation wavelength was 337 nm. To measure the affinity of 1-NPN to PxylCSP18, 1 µM protein in 20 mM Tris–HCl buffer (pH 7.4) was titrated with 1-NPN to final concentrations ranging from 1 to 17 µM in 1 cm light path quartz cuvette. After incubation for 3 min, the fluorescence intensity for each test was detected on an RF-5301 fluorescence spectrophotometer (Shimadzu, Japan). The average data of the recorded fluorescence intensity at the maximum emission wavelength were linearized using the Scatchard equation, and the dissociation constants for 1-NPN were then calculated ([Sideris et al. 1992], [Hua et al. 2021]). Sixteen ligands, including 3 sex pheromone components ((Z)-11-hexadecenal, (Z)-11-hexadecenyl acetate, and (Z)-11-hexadecenyl alcolol) and some host volatiles (terpene, ketone, aldehyde, alcohol, and ester volatiles), were detected the affinities of PxylCSP18. The final concentrations for each ligand ranging from 1 to 17 µM were added into the mixed solution of 1-NPN probe (1 µM) and PxylCSP18 (1 µM). […]

For assay [2], the target named is T1, PxylCSP18. Nature of the assay: Fluorescence competitive binding assays with 1-NPN as probe. As to conditions: for Ki: Ki = [IC50]/(1 + [1-NPN]/K1-NPN). As for the experimental part: The coding region of mature PxylCSP18 was cloned from the synthesized cDNA with the specific primers, in which an EcoR V and an Xho I restriction sites were introduced (Table 1). The amplified product was cloned into the pET-32a vector (Novagen, USA), followed by transformation into the competent E. coli BL21 (DE3) (Tiangen, China). The expression of PxylCSP18 in the bacteria was induced by 0.6 mM isopropyl-beta-D-thiogalactopyranoside (IPTG) overnight. Subsequently, the bacterial cells were collected through centrifugation and resuspended into phosphate-buffered saline (PBS) solution, then homogenized through sonication on ice using an ultrasonic processor (Sonics Vibra-Cell, USA). PxylCSP18 was purified from the soluble faction using a Ni^2+-NTA column (Roche, Switzerland) through a stepwise elution with 20, 50, 100, 150, and 500 mM imidazole in PBS. […] Finally, the PxylCSP18 was concentrated through ultrafiltration using a centrifugal device (3 kDa, Merck Millipore, USA), and the concentration was determined using the BCA Protein Assay Kit (Sangon, China). The purified recombinant PxylCSP18 was verified by peptide mass fingerprinting (Sangon Biotech, China).
Briefly, the emission spectra of the fluorescent probe, N-phenyl-1-naphthylamine (1-NPN, Sigma-Aldrich, USA), were recorded from 350 to 600 nm with 5 nm width of the emission slits and the excitation wavelength was 337 nm. […] Sixteen ligands, including 3 sex pheromone components ((Z)-11-hexadecenal, (Z)-11-hexadecenyl acetate, and (Z)-11-hexadecenyl alcolol) and some host volatiles (terpene, ketone, aldehyde, alcohol, and ester volatiles), were detected the affinities of PxylCSP18. […] The acquired data were calculated from the Scatchard plots for dissociation constants (Kd) and the curves, assuming PxylCSP18 was active completely and bound to the ligands in a 1:1 ratio at saturation.

For the next assay, the system named is PxylCSP11. Details: method as in Fu et al. 2020. The settings on record: ref Fu et al. 2020; cited from earlier work.
Another assay deals with P. xylostella adults. As to the kind of experiment: Y-tube olfactometer bioassays after RNAi knockdown of PxylCSP18. The format is in vivo, Plutella xylostella. As to conditions: day-2 unmated, 10 μg/μl in paraffin oil, dsCSP18 vs dsGFP. As for the experimental part: The pupae the day before eclosion were collected and used for RNA interference. The pupae were anesthetized on ice and then injected with 1 μl of dsRNA (10 μg/μl) at the dorsal site of the abdomen using a Nanoject III micro-injector (Drummond Scientific, Broomall, PA) equipped with glass capillaries prepared using a P-97 micropipette puller (Sutter Instrument Co., Novato, CA). The antennae of day-2 unmated female and male adults were collected to detect the efficiency of RNAi-mediated knockdown of PxylCSP18 through […]. Three independent biological replicates were performed.
The responses of the day-2 unmated female and male adults to the volatile compounds were performed using a glass Y-tube olfactometer with a central glass tube (5 cm long × 2.5 cm ID) and 2 lateral glass arms (15 cm long × 2.5 cm ID) with a 75° inside angle as described previously ([Yan et al. 2023]), with some modifications. Before bioassays, all glasswares were cleaned and washed with absolute alcohol and dried at 100 °C for 5 min. A moistened and activated charcoal-filtered airflow (350 mL/min) was pumped into each source container using an atmospheric sampling instrument (QC-1S, Beijing Institute of Labor Protection Science, Beijing, China). The behavioral response of male and female adults of P. xylostella to trans-2-hexen-1-ol, isopropyl isothiocyanate, myrcene, linalool were then observed. Each component was diluted with paraffin oil to 10 μg/μl. For each chemical, an aliquot of 10 μl was applied to a strip of filter paper (0.5 × 5 cm) and placed in 1 source container. A filter paper strip loaded with the same volume of paraffin oil and placed in the second source container was used as a control. Each test male or female moth was released at the entrance of the central glass tube of the Y-tube olfactometer and observed for 5 min. […] The positions of the arms were reversed after 5 insects to avoid positional bias. The experimental device was cleaned after every 10 insects by washing it with absolute acetone and followed by heating at 100 °C for 5 min. Each concentration of compound stimulus was tested with 30 insects, which successfully made a “choice.” The choice index was calculated as the number of responses of moths to […] divided by the total number of test moths.

The subject of another assay is P. xylostella. The settings on record: ref Song et al. 2022; cited from earlier work.
The subject of another assay is PxylCSP1. Also noted: method as in Liu et al. 2010. The settings on record: ref Liu et al. 2010; cited from earlier work.
Setting [3] is: 1-NPN 1 µM, PxylCSP18 1 µM, ligand 1 to 17 µM, concentration of ligand halving the initial fluorescence, N.D. = no significant binding detected, read-out: IC50.
Where [4] appears, read: 1-NPN 1 µM, PxylCSP18 1 µM, N.D. = no significant binding detected.
Setting [5] is: 1-NPN 1 µM, PxylCSP18 1 µM, ligand 1 to 17 µM.

This is an account of results in article PMC10829696, “Identification, expression profiles, and binding properties of chemosensory protein 18 in Plutella xylostella (Lepidoptera: Plutellidae)” (Journal of Insect Science, 2024).

Where two headings read alike, the source gives them in different places.

T1 sequence (A0ABQ7Q8H2 entry or part of it Q80P): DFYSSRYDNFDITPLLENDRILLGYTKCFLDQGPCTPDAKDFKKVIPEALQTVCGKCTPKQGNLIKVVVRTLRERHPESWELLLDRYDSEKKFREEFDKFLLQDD

As to `c1ccc(Nc2cccc3ccccc23)cc1` [1-NPN, N-phenyl-1-naphthylamine], the Kd on PxylCSP18 [1] amounted to 9.85 µM.
`CCCCCCCCC=O` [1-Nonanal] had an IC50 on PxylCSP18 [2] of 7.94 µM.
The same measure, in the same setting: under `C=CC(O)CC` (stereo not drawn) [1-Penten-3-ol] stands 7.17 µM.
As to `CCCC(C)CC(C)C` (stereo not drawn) [2,4-dimethylheptane], the “affinity of PxylCSP11” value in the assay with PxylCSP11 is “good affinities”.
Consider `CCC/C=C/CO` [(E)-2-Hexenal-1-ol], for which the half-inhibitory concentration (IC50) on PxylCSP18 [2] (setting [3]) is 7.66 µM. On PxylCSP18 [2] (setting [4]), the Ki was determined as 6.11 µM. Further, in the assay with P. xylostella adults, the “attractive effects to P. xylostella female adults after knocked down the expression of PxylCSP18” value is reported as “decreased inconspicuously” and the “attractive effects to P. xylostella male adults after knocked down the expression of PxylCSP18” value is on record as “significantly decreased”.
Consider `CC/C=C\CCOC(C)=O` [(Z)-3-Hexenyl acetate], for which the IC50 at PxylCSP18 [2] came to 9.09 µM.
In the case of `CCCC/C=C\CCCCCCCCCC=O` [(Z)-11-hexadecenal], the “binding affinity of PxylCSP18 to ligand (in words)” value (from here on “binding affinity of PxylCSP18”) on PxylCSP18 [2] (setting [5]) is “no significant binding affinity”.
In the case of `CCCC/C=C\CCCCCCCCCCOC(C)=O` [(Z)-11-hexadecenyl acetate], at PxylCSP18 [2] (setting [5]), the “binding affinity of PxylCSP18” value is on record as “no significant binding affinity”. For the same molecule, in the assay with PxylCSP11, the “affinity of PxylCSP11” value is on record as “good affinities”.
With `CCCC/C=C\CCCCCCCCCCO` [(Z)-11-hexadecenyl alcolol], at PxylCSP18 [2] (setting [5]), the “binding affinity of PxylCSP18” value was “no significant binding affinity”.
`C=CCN=C=S` [Allyl isothiocyanate] returned a 50% inhibitory concentration (IC50) on PxylCSP18 [2] of 7.23 µM. Further, the “affinity of PxylCSP11” value in the assay with PxylCSP11 is “good affinities”.
Turning to `CCCCN=C=S` [Buty1 isothiocyanate], the IC50 at PxylCSP18 [2] came out at 8.86 µM.
Take `CCCCCC=O` [Caproldehyde]: the IC50 at PxylCSP18 [2] (setting [3]) was determined as 7.49 µM. Moreover, on PxylCSP18 [2] (setting [4]), the inhibitory constant (Ki) was determined as 5.98 µM.
On PxylCSP18 [2], `CC(C)N=C=S` [Isopropyl isothiocyanate] came in with an IC50 of 8.17 µM. In addition, in the assay on P. xylostella adults, the “attractive effects to P. xylostella female adults after knocked down the expression of PxylCSP18” value was “significantly weakened” and the “attractive effects to P. xylostella male adults after knocked down the expression of PxylCSP18” value was “significantly decreased”.
Consider `C=C(C)[C@H]1CC=C(C)CC1` [Limonene], for which the IC50 on PxylCSP18 [2] (setting [3]) was 1.85 µM. Moreover, the inhibition constant (Ki) at PxylCSP18 [2] (setting [4]) amounted to 1.48 µM.
As for `C=CC(C)(O)CCC=C(C)C` (stereo not drawn) [Linalool], the half-inhibitory concentration (IC50) at PxylCSP18 [2] is 7.61 µM. Besides, in the assay with P. xylostella adults, the “repellent effects to P. xylostella female adults after knocked down the expression of PxylCSP18” value is “significantly weakened” and the “repellent effects to P. xylostella male adults after knocked down the expression of PxylCSP18” value was “decreased inconspicuously”.
Molecule `C=CC(=C)CCC=C(C)C` [Myrcene] had an IC50 on PxylCSP18 [2] of 1.34 µM. Besides, in the assay on P. xylostella adults, the “repellent effects to P. xylostella female adults after knocked down the expression of PxylCSP18” value is reported as “decreased inconspicuously” and the “repellent effects to P. xylostella male adults after knocked down the expression of PxylCSP18” value was “decreased inconspicuously”. Moreover, in the assay on P. xylostella, the “behavioural effect on P. xylostella” value was “repellent”.
Regarding `CC1(C)[C@H]2O[C@H]2[C@H]2[C@](C)(O)[C@@H]3CC[C@@H]4[C@@H](O)[C@@]3(C[C@@H](O)[C@@]21O)C[C@@]4(C)O` [Rhodojaponin-III], the “ability of PxylCSP1 to bind” value in the assay on PxylCSP1 was “remarkable ability to bind”.
In the case of `OCCc1ccccc1` [phenethyl alcohol], the “affinity of PxylCSP11” value in the assay on PxylCSP11 was “good affinities”.
Regarding `S=C=NCCc1ccccc1` [phenethyl isothiocyanate], in the assay on PxylCSP11, the “affinity of PxylCSP11” value is given as “good affinities”.
With `CC(=O)/C=C/C1C(C)=CCCC1(C)C` (stereo not drawn) [α-Ionone], on PxylCSP18 [2], the IC50 was determined as 4.19 µM.
Molecule `CC1=CC=C(C(C)C)CC1` [α-Terpinene] registered an IC50 on PxylCSP18 [2] of 1.29 µM. In addition, the “affinity of PxylCSP11” value with PxylCSP11 is recorded as “good affinities”.
On to `CC1=CC[C@@H](C(C)(C)O)CC1` [α-terpineol], for which the “affinity of PxylCSP11” value in the assay on PxylCSP11 is “good affinities”.
Consider `CC1=CCC(C(C)C)=CC1` [γ-Terpinene], for which the IC50 on PxylCSP18 [2] was 1.21 µM. For the same molecule, in the assay with P. xylostella, the “behavioural effect on P. xylostella” value was “repellent”.
